From ChEMBL document CHEMBL5214892, “Antitumor potential of the protein phosphatase inhibitor, cantharidin, and selected derivatives” (Bioorg Med Chem, 2021)
Converted amounts (≈) assume the structure as drawn.

Key:
Hep 3B2 [1] = assay: Anticancer activity against human Hep3B cells assessed as cell growth inhibition incubated for 48 hrs by MTT assay; assay type: functional, cell-based
Homo sapiens = species on record: Homo sapiens; assay: Anticancer activity against human Liver cancer cell assessed as cell growth inhibition; assay type: functional
Hep 3B2 [2] = assay: Anticancer activity against human Hep3B cells assessed as cell growth inhibition incubated for 48 hrs by MTS assay; assay type: functional, cell-based
[3] = Cytotoxicity against human Bone marrow cell assessed as cell growth inhibition by MTS assay; assay type: toxicity, cell-based; conditions: bone marrow cells
[4] = Inhibition of PP1 (unknown origin); parameters: species or system Homo sapiens
[5] = Inhibition of bovine brain PP2A assessed as dephosphorylation of substrate using P32 labelled peptide DLDVPIPGRFDRRVSVAAE as substrate by radiometric analysis; parameters: species or system Bos taurus
HepG2 [6] = assay: Anticancer activity against human HepG2 cells assessed as cell growth inhibition measured after 72 hrs by MTT assay; assay type: functional, cell-based; conditions: HepG2, 72 h
HL-60 = assay: Anticancer activity against human HL-60 cells assessed as cell growth inhibition measured after 72 hrs by MTT assay; assay type: functional, cell-based; conditions: HL-60, 72 h
KB 3-1 = assay: Anticancer activity against human KB 3-1 cells assessed as cell growth inhibition measured after 72 hrs by MTT assay; assay type: functional, cell-based; conditions: KB 3-1, 72 h
[7] = Inhibition of rabbit liver PP2C assessed as dephosphorylation of substrate using P32 labelled peptide as substrate by radiometric analysis; parameters: species or system Oryctolagus cuniculus
[8] = Toxicity in mouse assessed as lethal dose administered intraperitoneally; conditions: in vivo, route ip
Colon cancer cell line = assay: Anticancer activity against human Colon carcinoma cell assessed as cell growth inhibition; assay type: functional, cell-based
Lung cancer cell line = assay: Anticancer activity against human Lung cancer cell line assessed as cell growth inhibition; assay type: functional, cell-based
[9] = Anticancer activity against human oral cancer cell assessed as cell growth inhibition; assay type: functional, cell-based
[10] = Anticancer activity against human leukaemia cell line assessed as cell growth inhibition; assay type: functional, cell-based
SMMC-7721 = assay: Anticancer activity against human SMMC-7721 cell assessed as cell growth inhibition measured after 24 to 48 hrs by SRB colorimetry assay; assay type: functional, cell-based
Bel-7402 = assay: Anticancer activity against human Bel-7402 cell assessed as cell growth inhibition measured after 24 to 48 hrs by SRB colorimetry assay; assay type: functional, cell-based
[11] = Inhibition of PP (unknown origin); parameters: species or system Homo sapiens
HT-29 = assay: Anticancer activity against human HT-29 cells assessed as cell growth inhibition measured after 72 hrs by MTT assay; assay type: functional, cell-based; conditions: HT-29, 72 h
MCF7 = assay: Anticancer activity against human MCF7 cells assessed as cell growth inhibition measured after 72 hrs by MTT assay; assay type: functional, cell-based; conditions: MCF7, 72 h
A-431 = assay: Anticancer activity against human A-431 cells assessed as cell growth inhibition measured after 72 hrs by MTT assay; assay type: functional, cell-based; conditions: A-431, 72 h
DU-145 = assay: Anticancer activity against human DU-145 cells assessed as cell growth inhibition measured after 72 hrs by MTT assay; assay type: functional, cell-based; conditions: DU-145, 72 h
BE(2)-C = assay: Anticancer activity against human BE2C cells assessed as cell growth inhibition measured after 72 hrs by MTT assay; assay type: functional, cell-based
MIA PaCa-2 = assay: Anticancer activity against human MIA PaCa-2 cells assessed as cell growth inhibition measured after 72 hrs by MTT assay; assay type: functional, cell-based; conditions: MIA PaCa-2, 72 h
HepG2 [12] = assay: Anticancer activity against human HepG2 cells assessed as cell growth inhibition incubated for 2 days by MTT assay; assay type: functional, cell-based; conditions: HepG2, 48 h
[13] = Homo sapiens, Liver cancer cell

SMILES | IC50 (Homo sapiens; [13]) [µM] | IC50 [4] [µM] | IC50 [5] [µM] | IC50 (HepG2 [6]) [µM] | IC50 (HL-60) [µM] | IC50 (KB 3-1) [µM] | IC50 [7] [µM] | LD50 [8] [mg/kg] | other results
CN1C(=O)[C@@]2(C)[C@@H]3CC[C@@H](O3)[C@@]2(C)C1=O |  |  |  |  |  |  |  |  | IC50 (Hep 3B2 [1]): > 2000 µM
C[C@@]12C(=O)N(c3nc4ccc(OC(F)(F)F)cc4s3)C(=O)[C@]1(C)[C@H]1CC[C@@H]2O1 [CANTHARIDIMIDE] | 6.5 |  |  |  |  |  |  |  | IC50 (Hep 3B2 [2]): 15.8 µM; IC50 [3]: > 12.5 µg/mL
C[C@@]12COC(=O)[C@]1(C)[C@H]1CC[C@@H]2O1 |  | > 200 | > 200 | > 200 | > 200 | > 200 |  |  | 
C[C@@]12C(=O)OC(=O)[C@]1(C)[C@H]1CC[C@@H]2O1 [CANTHARIDIN] | 2 | 0.47 | 0.04 | 19.1 | 2.7 | 2.7 | > 1000 | 1 | IC50 (Colon cancer cell line): 2 µM; IC50 (Lung cancer cell line): 2 µM; IC50 [9]: 2 µM; IC50 [10]: 2 µM; IC50 [3]: 6.5 µg/mL (≈ 33.1 µM)
C[C@]1(C(=O)O)[C@@H]2CC[C@@H](O2)[C@@]1(C)C(=O)O | > 50 | 0.56 | 0.05 | 218 | 103 | 79.2 | > 1000 | 1.8 | IC50 [9]: > 50 µM; IC50 [10]: > 50 µM
C[C@@]12C(=O)N(c3ncc([N+](=O)[O-])s3)C(=O)[C@]1(C)[C@H]1CC[C@@H]2O1 | < 1 |  |  |  |  |  |  |  | IC50 (Hep 3B2 [1]): 0.4 µM
O=C(O)[C@@H]1[C@H](C(=O)O)[C@H]2CC[C@@H]1O2 [listing 1 of 2 here] | 12 |  |  |  |  |  |  |  | IC50 (SMMC-7721): 12.5 µM; IC50 (Bel-7402): 12.5 µM
C[C@@]12C(=O)OC(=O)[C@@H]1[C@H]1CC[C@@H]2O1 |  | 0.66 | 0.12 |  |  |  | > 1000 |  | IC50 [11]: < 1 µM
O=C1OC(=O)C2C3CCC(O3)C12 (stereo not given) [DEMETHYL-CANTHARIDIN] | > 15 | 1.98 | 0.37 | 213 | 15.7 | 69.5 |  | 4 | IC50 (Colon cancer cell line): > 15 µM; IC50 [9]: > 15 µM; IC50 [10]: > 15 µM
O=C(NCc1ccc(-c2ccccc2)cc1)C(CNC(=O)[C@H]1[C@@H](C(=O)O)[C@@H]2CC[C@H]1O2)Cc1ccco1 (stereo not given in full) |  |  |  |  |  |  |  |  | IC50 (Colon cancer cell line): 0.015 µM; IC50 (HT-29): 0.015 µM; IC50 (MCF7): 0.027 µM; IC50 (A-431): 0.045 µM; IC50 (DU-145): 0.026 µM; IC50 (BE(2)-C): 0.029 µM; IC50 (MIA PaCa-2): 0.056 µM
O=C(O)[C@@H]1[C@H](C(=O)O)[C@H]2CC[C@@H]1O2 [listing 2 of 2 here] |  |  |  |  |  |  |  |  | IC50 (Homo sapiens; liver cancer cell): 15 µM; IC50 (HepG2 [12]): 15.4 µM
O=C(O)[C@@H]1[C@H](C(=O)O)[C@H]2CC[C@@H]1O2 [ENDOTHALL] |  | 5 | 0.97 |  |  |  | > 1000 | 14 | IC50 [11]: > 0.9 µM
O=C1OC[C@@H]2[C@H]1[C@H]1CC[C@@H]2O1 |  | 62.2 | 99.9 | > 200 | > 200 | 112 |  |  | 
